Several values for one entry are separate records, joined by “and”; a condition that tells them apart may be missing. Equal entries are not always repeated.
Test system: 743489-274-T-PDC complex spheroid viability
Assay: Anticancer human tumor 743489-274-T-PDC patient-derived renal cell carcinoma cell line growth inhibition
Details: for viability, T/C: stronger effect = lower value
Method in brief: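 Drug combinations with the LSD1 inhibitor iadademstat tested on tumor cells co-cultured as spheroids with endothelial cells and mesenchymal stem cells. Concentrations descended in half-log increments from clinical Cmax or 10 microM.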
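Note: spheroids exposed to compounds for 7 days before readout.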
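Throughout, for viability, T/C: 100% = DMSO vehicle control wells.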

COc1cc(Nc2ncc3c(n2)-c2ccc(Cl)cc2C(c2c(F)cccc2OC)=NC3)ccc1C(=O)O
viability, T/C (compound 0.00316 µM): 102% and 91.3% | viability, T/C (compound 0.01 µM): 91.3% and 102% | viability, T/C (compound 0.0316 µM): 89.6% and 92% | viability, T/C (compound 0.1 µM): 92.6% and 90.8% | viability, T/C (compound 0.316 µM): 94.2% and 87.2% | viability, T/C (compound 1 µM): 91.7% and 67.7% | IC50 (curve of compound): > 1 µM

O=C(c1cc(Cc2n[nH]c(=O)c3ccccc23)ccc1F)N1CCN(C(=O)C2CC2)CC1 + NC1CCC(NC2CC2c2ccccc2)CC1
IC50 (curve of first compound, second compound 0.1 µM): > 10 µM | IC50 (curve of first compound, second compound 0.316 µM): > 10 µM | IC50 (curve of first compound, second compound 1 µM): > 10 µM | IC50 (curve of first compound, second compound 3.16 µM): > 10 µM | IC50 (curve of first compound, second compound 10 µM): > 10 µM | viability, T/C (second compound 0.1 µM, first compound 0.0316 µM): 112% | viability, T/C (second compound 0.1 µM, first compound 0.1 µM): 111% | viability, T/C (second compound 0.1 µM, first compound 0.316 µM): 101% | viability, T/C (second compound 0.1 µM, first compound 1 µM): 101% | viability, T/C (second compound 0.1 µM, first compound 3.16 µM): 110% | viability, T/C (second compound 0.1 µM, first compound 10 µM): 106% | viability, T/C (second compound 0.316 µM, first compound 0.0316 µM): 104% | viability, T/C (second compound 0.316 µM, first compound 0.1 µM): 106% | viability, T/C (second compound 0.316 µM, first compound 0.316 µM): 120% | viability, T/C (second compound 0.316 µM, first compound 1 µM): 107% | viability, T/C (second compound 0.316 µM, first compound 3.16 µM): 124% | viability, T/C (second compound 0.316 µM, first compound 10 µM): 100% | viability, T/C (second compound 1 µM, first compound 0.0316 µM): 114% | viability, T/C (second compound 1 µM, first compound 0.1 µM): 100% | viability, T/C (second compound 1 µM, first compound 0.316 µM): 106% | viability, T/C (second compound 1 µM, first compound 1 µM): 110% | viability, T/C (second compound 1 µM, first compound 3.16 µM): 111% | viability, T/C (second compound 1 µM, first compound 10 µM): 108% | viability, T/C (second compound 3.16 µM, first compound 0.0316 µM): 117% | viability, T/C (second compound 3.16 µM, first compound 0.1 µM): 129% | viability, T/C (second compound 3.16 µM, first compound 0.316 µM): 120% | viability, T/C (second compound 3.16 µM, first compound 1 µM): 98.8% | viability, T/C (second compound 3.16 µM, first compound 3.16 µM): 100% | viability, T/C (second compound 3.16 µM, first compound 10 µM): 113% | viability, T/C (second compound 10 µM, first compound 0.0316 µM): 108% | viability, T/C (second compound 10 µM, first compound 0.1 µM): 116% | viability, T/C (second compound 10 µM, first compound 0.316 µM): 110% | viability, T/C (second compound 10 µM, first compound 1 µM): 119% | viability, T/C (second compound 10 µM, first compound 3.16 µM): 116% | viability, T/C (second compound 10 µM, first compound 10 µM): 89%
